According to US9597316B2, “Indole compounds for use in treating inflammation and cancer” (BIOVENTURES LLC, priority 2012, dated 2017):

Columns and labels:
[1] = test system: panel of 60 human tumor cell lines; assay: single dose (10 μM) evaluation against panel of 60 human tumor cell lines; type: cell-based; details: any of the human cancer cell lines in the 60 cell panel
Protocol: (§1) The preliminary evaluation of compounds 3a-z was carried out at a single dose of 10 μM, against a panel of 60 human tumor cell lines, according to the procedure described by Rubinstein et al., Natl. Cancer. […] The human tumor cell line panel included leukemia, non-small cell lung, colon, central nervous system (CNS), melanoma, ovarian, renal, prostate, and breast cancer cell lines.

[2] = in water; cited from earlier work
CCRF-CEM (Leukemia) = assay: five dose-response growth inhibition/cytotoxicity, CCRF-CEM; type: cell-based, human; details: for CC50: read-out: LC50 (the source's name)
Protocol: as §1
(§2) Dose-response curves were created by plotting cytotoxic effect against the log10 of the drug concentration for each cell line. Cytotoxic effects of each compound were determined as GI50 and LC50 values, which represent the molar drug concentration for causing 50% growth inhibition, and the concentration that kills 50% of the cells, respectively.

K-562 (Leukemia) = assay: five dose-response growth inhibition/cytotoxicity, K-562; type: cell-based, human; details: for CC50: read-out: LC50 (the source's name)
Protocol: as §1, §2

SR (Leukemia) = assay: five dose-response growth inhibition/cytotoxicity, SR; type: cell-based, human; details: for CC50: read-out: LC50 (the source's name)
Protocol: as §1, §2

[3] = test system: HOP-62 (Non-Small Cell Lung Cancer); assay: five dose-response growth inhibition/cytotoxicity, HOP-62; type: cell-based, human; details: for CC50: read-out: LC50 (the source's name)
Protocol: as §1, §2

HCT-116 (Colon Cancer) = assay: five dose-response growth inhibition/cytotoxicity, HCT-116; type: cell-based, human; details: for CC50: read-out: LC50 (the source's name)
Protocol: as §1, §2

HCT-15 (Colon Cancer) = assay: five dose-response growth inhibition/cytotoxicity, HCT-15; type: cell-based, human; details: for CC50: read-out: LC50 (the source's name)
Protocol: as §1, §2

SF-268 (CNS Cancer) = assay: five dose-response growth inhibition/cytotoxicity, SF-268; type: cell-based, human; details: for CC50: read-out: LC50 (the source's name)
Protocol: as §1, §2

SF-539 (CNS Cancer) = assay: five dose-response growth inhibition/cytotoxicity, SF-539; type: cell-based, human; details: for CC50: read-out: LC50 (the source's name)
Protocol: as §1, §2

U251 (CNS Cancer) = assay: five dose-response growth inhibition/cytotoxicity, U251; type: cell-based, human; details: for CC50: read-out: LC50 (the source's name)
Protocol: as §1, §2

LOX IMVI (Melanoma) = assay: five dose-response growth inhibition/cytotoxicity, LOX IMVI; type: cell-based, human; details: for CC50: read-out: LC50 (the source's name)
Protocol: as §1, §2

M14 (Melanoma) = assay: five dose-response growth inhibition/cytotoxicity, M14; type: cell-based, human; details: for CC50: read-out: LC50 (the source's name)
Protocol: as §1, §2

MDA-MB-435 (Melanoma) = assay: five dose-response growth inhibition/cytotoxicity, MDA-MB-435; type: cell-based, human; details: for CC50: read-out: LC50 (the source's name)
Protocol: as §1, §2

SK-MEL-5 (Melanoma) = assay: five dose-response growth inhibition/cytotoxicity, SK-MEL-5; type: cell-based, human; details: for CC50: read-out: LC50 (the source's name)
Protocol: as §1, §2

UACC-62 (Melanoma) = assay: five dose-response growth inhibition/cytotoxicity, UACC-62; type: cell-based, human; details: for CC50: read-out: LC50 (the source's name)
Protocol: as §1, §2

OVCAR-3 (Ovarian Cancer) = assay: five dose-response growth inhibition/cytotoxicity, OVCAR-3; type: cell-based, human; details: for CC50: read-out: LC50 (the source's name)
Protocol: as §1, §2

[4] = test system: NCI/ADR-RES (Ovarian Cancer); assay: five dose-response growth inhibition/cytotoxicity, NCI/ADR-RES; type: cell-based, human; details: for CC50: read-out: LC50 (the source's name)
Protocol: as §1, §2

[5] = test system: DU-145 (Prostrate Cancer); assay: five dose-response growth inhibition/cytotoxicity, DU-145; type: cell-based, human; details: for CC50: read-out: LC50 (the source's name)
Protocol: as §1, §2

[6] = test system: leukemia cell lines in the panel; assay: five dose-response growth inhibition, leukemia cell lines in the panel; type: cell-based, human; details: all four leukemia cell lines in the panel; read-out: GI50 values in the range
Protocol: as §1, §2

HL-60(TB) (Leukemia) = details: for CC50: read-out: LC50
Protocol: as §1, §2

KM-12 (Colon Cancer) = details: for CC50: read-out: LC50
MOLT-4 (Leukemia) = assay: five dose-response growth inhibition/cytotoxicity, MOLT-4; type: cell-based, human; details: for CC50: read-out: LC50 (the source's name)
Protocol: as §1, §2

[7] = five dose-response growth inhibition/cytotoxicity, UO-31; type: cell-based, human; details: for CC50: read-out: LC50 (the source's name)
Protocol: as §1, §2

[8] = test system: HOP-92 non-small cell lung cancer; assay: five dose-response growth inhibition/cytotoxicity, HOP-92; type: cell-based, human; details: for CC50: read-out: LC50 (the source's name)
Protocol: as §1, §2

[9] = test system: three melanoma cell lines; assay: five dose-response growth inhibition, melanoma cell lines; type: cell-based, human; details: read-out: GI50 values in the range
Protocol: as §1, §2

| Compound | GI50 (CCRF-CEM (Leukemia)) | CC50 (CCRF-CEM (Leukemia)) | GI50 (K-562 (Leukemia)) | CC50 (K-562 (Leukemia)) | GI50 (SR (Leukemia)) | CC50 (SR (Leukemia)) | GI50 [3] | CC50 [3] | GI50 (HCT-116 (Colon Cancer)) | CC50 (HCT-116 (Colon Cancer)) | GI50 (HCT-15 (Colon Cancer)) | CC50 (HCT-15 (Colon Cancer)) | GI50 (SF-539 (CNS Cancer)) | CC50 (SF-539 (CNS Cancer)) | GI50 (U251 (CNS Cancer)) | CC50 (U251 (CNS Cancer)) | GI50 (LOX IMVI (Melanoma)) | CC50 (LOX IMVI (Melanoma)) | GI50 (M14 (Melanoma)) | CC50 (M14 (Melanoma)) | also measured |
| --- | --- | --- | --- | --- | --- | --- | --- | --- | --- | --- | --- | --- | --- | --- | --- | --- | --- | --- | --- | --- | --- |
| O=C1NC(=S)NC(=O)C1=Cc1cn(C(=O)c2ccc3ccccc3c2)c2ccccc12 [Compound 3x] | – | – | – | – | – | – | – | – | – | – | – | – | – | – | – | – | – | – | – | – | cytotoxic potency against the 60 cell panel [1]: not identified as potent cytotoxic agents |
| O=C1CC(=O)NC(=S)N1 [2-Thiobarbituric acid] | – | – | – | – | – | – | – | – | – | – | – | – | – | – | – | – | – | – | – | – | pKa [2]: 2.1 |
| COc1ccc2c(c1)c(C=C1C(=O)NC(=S)NC1=O)cn2C(=O)c1ccc2ccccc2c1 [Compound 3z] | – | – | – | – | – | – | – | – | – | – | – | – | – | – | – | – | – | – | – | – | cytotoxic potency against the 60 cell panel [1]: not identified as potent cytotoxic agents |
| COc1ccc2c(c1)c(C=C1C(=O)NC(=S)NC1=O)cn2C(=O)c1ccccc1Br [Compound 3s] | 4 µM | > 100 µM | 3.8 µM | > 100 µM | 2.55 µM | > 100 µM | 3.59 µM | 64.3 µM | 3.76 µM | > 100 µM | 3.83 µM | 89.9 µM | 3 µM | 57.8 µM | 3.09 µM | 42.1 µM | 2.92 µM | 47.9 µM | 3.52 µM | > 100 µM | GI50 (SF-268 (CNS Cancer)): 3.86 µM; CC50 (SF-268 (CNS Cancer)): 52.2 µM; GI50 (MDA-MB-435 (Melanoma); MDA-MB-435): 1.77 µM; CC50 (MDA-MB-435 (Melanoma); MDA-MB-435): 8.43 µM; GI50 (SK-MEL-5 (Melanoma)): 3.47 µM; CC50 (SK-MEL-5 (Melanoma)): > 50 µM; GI50 (UACC-62 (Melanoma)): 3.38 µM; CC50 (UACC-62 (Melanoma)): 39.6 µM; GI50 (OVCAR-3 (Ovarian Cancer)): 2.77 µM; CC50 (OVCAR-3 (Ovarian Cancer)): 33.1 µM; GI50 [4]: 3.23 µM; CC50 [4]: > 100 µM; GI50 [5]: 3.01 µM; CC50 [5]: 53.6 µM; GI50 [6]: 2.55 to 4 µM; GI50 (HL-60(TB) (Leukemia)): 3.24 µM; CC50 (HL-60(TB) (Leukemia)): > 100 µM; GI50 (KM-12 (Colon Cancer)): 3.87 µM; CC50 (KM-12 (Colon Cancer)): 51.9 µM |
| COc1ccc2c(c1)c(C=C1C(=O)NC(=S)NC1=O)cn2C(=O)c1cccc2ccccc12 [Compound 3w] | 3.31 µM | > 100 µM | 3.52 µM | > 100 µM | 3.32 µM | > 100 µM | 1.09 µM | > 100 µM | 3.35 µM | > 100 µM | 3.1 µM | > 100 µM | 2.3 µM | > 100 µM | 3.23 µM | > 100 µM | 3.8 µM | > 100 µM | 1.91 µM | > 100 µM | GI50 (MOLT-4 (Leukemia)): 3.95 µM; CC50 (MOLT-4 (Leukemia)): > 100 µM; GI50 (MDA-MB-435 (Melanoma); MDA-MB-435): 2.01 µM; CC50 (MDA-MB-435 (Melanoma); MDA-MB-435): 12 µM; GI50 (OVCAR-3 (Ovarian Cancer)): 2.38 µM; CC50 (OVCAR-3 (Ovarian Cancer)): 20.9 µM; GI50 [4]: 3.14 µM; CC50 [4]: > 100 µM; GI50 [7]: 3.72 µM; CC50 [7]: > 100 µM; GI50 [8]: 1.09 µM; CC50 [8]: ≥ 100 µM; GI50 [6]: 3.31 to 3.95 µM; GI50 [9]: 1.91 to 3.8 µM; GI50 (HL-60(TB) (Leukemia)): 3.47 µM; CC50 (HL-60(TB) (Leukemia)): > 100 µM |
| COc1ccc(C(=O)n2cc(C=C3C(=O)NC(=S)NC3=O)c3cc(OC)ccc32)cc1 [Compound 3k] | 2.23 µM | > 50 µM | 2.55 µM | > 50 µM | 1.45 µM | 39.4 µM | 3.12 µM | > 50 µM | 1.95 µM | ≥ 50 µM | 1.8 µM | ≥ 50 µM | 2.56 µM | > 50 µM | 1.93 µM | > 50 µM | 1.86 µM | ≥ 50 µM | 2.03 µM | > 50 µM | GI50 (SF-268 (CNS Cancer)): 2.65 µM; CC50 (SF-268 (CNS Cancer)): > 50 µM; GI50 (MDA-MB-435 (Melanoma); MDA-MB-435): 0.85 µM; CC50 (MDA-MB-435 (Melanoma); MDA-MB-435): 3.86 µM; GI50 (MDA-MB-435 (Melanoma); melanoma MDA-MB-435): 0.85 µM; GI50 (SK-MEL-5 (Melanoma)): 2.31 µM; CC50 (SK-MEL-5 (Melanoma)): > 50 µM; GI50 (UACC-62 (Melanoma)): 2.33 µM; CC50 (UACC-62 (Melanoma)): > 50 µM; GI50 (OVCAR-3 (Ovarian Cancer)): 1.26 µM; CC50 (OVCAR-3 (Ovarian Cancer)): ≥ 50 µM; GI50 [4]: 2.91 µM; CC50 [4]: > 50 µM; GI50 [5]: 2.41 µM; CC50 [5]: > 50 µM; GI50 [6]: 1.45 to 3.91 µM; GI50 (HL-60(TB) (Leukemia)): 3.91 µM; CC50 (HL-60(TB) (Leukemia)): > 50 µM; GI50 (KM-12 (Colon Cancer)): 1.99 µM; CC50 (KM-12 (Colon Cancer)): ≥ 50 µM |
| O=C1NC(=S)NC(=O)C1=Cc1cn(C(=O)c2cccc3ccccc23)c2ccccc12 [Compound 3t] | 3.35 µM | > 100 µM | 3.71 µM | > 100 µM | 2.74 µM | 92.3 µM | 1.3 µM | 44.8 µM | 2.9 µM | > 100 µM | 3.6 µM | > 100 µM | 3.68 µM | 58.6 µM | 3.58 µM | 50.7 µM | 3.59 µM | 55.6 µM | 3.22 µM | > 100 µM | GI50 (MOLT-4 (Leukemia)): 3.49 µM; CC50 (MOLT-4 (Leukemia)): 79 µM; GI50 (MDA-MB-435 (Melanoma); MDA-MB-435): 1.91 µM; CC50 (MDA-MB-435 (Melanoma); MDA-MB-435): 9.23 µM; GI50 (OVCAR-3 (Ovarian Cancer)): 2.46 µM; CC50 (OVCAR-3 (Ovarian Cancer)): 46.2 µM; GI50 [4]: 2.59 µM; CC50 [4]: > 100 µM; GI50 [7]: 3.93 µM; CC50 [7]: > 100 µM; GI50 [8]: 1.3 µM; CC50 [8]: 44.8 µM; GI50 [6]: 2.74 to 3.71 µM; GI50 (HL-60(TB) (Leukemia)): 3.36 µM; CC50 (HL-60(TB) (Leukemia)): > 100 µM |
